Assay results reported in publication PMC5074076, “Novel minimal physiologically-based model for the prediction of passive tubular reabsorption and renal excretion clearance” (European Journal of Pharmaceutical Sciences, 2016).
“And” between values parts separate entries of the source, which are not always exact repeats. Identical values can stand only once. Like-named read-outs stand apart in the source and are kept apart here.

Tests used:
[1] = Caco-2 apparent permeability (Papp), apical to basolateral, pH 6.5-7.4 gradient, efflux inhibitor cocktail; conditions: human, Caco-2, pH 6.5
Method: (§2) The assay was performed using the apical to basolateral pH gradient format of pH 6.5 to pH 7.4. […] The efflux transporter inhibitor cocktail was used to minimise the effect of efflux transporters expressed in Caco-2 cells (e.g. P-glycoprotein, BCRP and MRP2) on the estimate of apical to basolateral Papp of substrates for such transporters.

[2] = Ionisation classification at pH 6.5 from pKa; format: physicochemical; conditions: predominant species (> 50%) at pH 6.5 from measured or calculated pKa
Text: (§1) The pKa values associated with ionisable centres identified within a given drug were used to calculate the fraction of drug ionised at pH 6.5. Drugs were then classified into groups as follows: drugs with > 50% unionised at pH 6.5 were classified as “Neutral”; drugs with > 50% ionised as mono −/di −/tri-protic acids or bases were classified as “Acid” or “Base”, respectively; “Zwitterions” were classified as drugs with > 50% ionised, with the major ionised species having no net charge; all other drugs were classified as amphoteric. […] LogD6.5 for neutral, amphoteric and zwitterion drugs were assumed to be equal to LogD7.4.

[3] = pKa, potentiometric AstraZeneca in-house assay (or ACD / BioByte); conditions: measured, potentiometric
Text: as §1

[4] = LogD7.4 octanol-buffer, shake-flask (or ACD / BioByte); conditions: octanol/buffer, pH 7.4
Text: as §1

[5] = cited from earlier work; for CLR: healthy adult subjects, overall weighted mean of literature values, absolute (not normalised), ref Supplementary Results Table S2.1; for Overall weighted mean CLR: healthy subjects, plasma and urine data from same subjects, normalised for subject weight and body surface area where necessary; for Overall weighted mean CLR / CLR Observed: ref Table S2.1; for CLR Observed: overall weighted mean of values obtained from a literature survey
[6] = Observed clearance ratio and fraction reabsorbed (Freab, Freab′) calculated from CLR, fu,p and GFR; conditions: for Apparent Freab / Apparent Freab’: calculated from observed CLR, fu,p and GFR; for Freab: observed/apparent, 1 - CLR/(GFR x fu,p), GFR 120 mL/min
Method: The clearance ratio was calculated from clinical data using Eqs. […] For the remaining drugs the fraction reabsorbed (Freab) was calculated using Eq.
GFR values for healthy subjects may vary as a result of biological as well as inter-individual variation and also the method of measurement. […] Individual GFR values for subjects in clinical trials databases were generally not available.
In the proposed model, the nephron is represented as five compartments, namely the glomerulus and four tubular regions, as depicted in Fig. 1. The tubular compartments in the model, listed in anatomical order starting from the glomerulus are: the proximal tubule (PT), the loop of Henle (LoH), the distal tubule (DT) and the collecting duct (CD). […] The relationship between Freab′ and Freab is shown in Eq. (11). The predicted overall Freab′ was calculated from the predicted Freab′ in each (i) tubular region (Freab,i′), as shown in Eq. (12).

Caco-2 cell monolayers = assay: Caco-2 apparent permeability (Papp), apical to basolateral, pH 6.5-7.4 gradient, efflux inhibitor cocktail; conditions: Caco-2, apical to basolateral, pH 6.5 to 7.4, efflux inhibitor cocktail, 2 h
Method: as §2

[7] = LogD6.5 estimated from LogD7.4 and pKa; conditions: octanol/buffer, pH 6.5
Text: as §1

[8] = Papp-Freab′ calibration of Caco-2 Papp with reference drugs and CLR prediction; parameters: species or system human; conditions: reference drugs; calibrated Caco-2 Papp after Hill equation fitting
Text: To account for this and to allow the Caco-2 data in the present study to be transferable to other assay formats/laboratories, a Papp–Freab′ calibration method was explored by splitting the available Papp and Freab′ data into ‘reference’ and internal ‘validation’ subsets. […] The calibration approach is proposed as a pragmatic method to account for inter-assay/inter-laboratory differences; herein it is applied to the current dataset only, and not external data as intended for future studies.
In order to evaluate the application of Papp–Freab′ calibration (Eq. (17)), 11 drugs were selected as reference ‘calibrator’ drugs (Papp,ref) covering a representative range of Freab′ and Papp values (Table 5). The remaining 34 drugs were treated as an internal ‘validation’ set.

[9] = parameters: method as in Hammarlund et al., 1985; Swärd et al., 2005; conditions: healthy subjects or cardiac surgery patients, well hydrated; ref Hammarlund et al., 1985; Swärd et al., 2005; cited from earlier work
in vitro = conditions: human, Caco-2, pH 6.5
Method: as §2

Row | SMILES | Papp A→B at 2 h [1] [×10⁻⁶ cm/s] | Ionisation at pH 6.5 [2] | pKa ([3]; pKa (base)) | logD [4] | CLR [5] | Overall weighted mean CLR [5] [mL/min] | CLR Observed [5] [mL/min] | Apparent Freab [6] | Apparent Freab’ [6] | Freab [6] | Papp (Caco-2 cell monolayers) | logD [7] | pKa ([3]; pKa (acid)) | Papp,ref,calibrated [8] | increase in urine flow compared to control conditions [9] | Papp A→B (in vitro) [×10⁻⁶ cm/s] | CLR ([5]; listed as isoxicam) [mL/min] | Freab ([6]; listed as isoxicam) | Freab′ ([6]; observed, fraction of equilibrium reached between urine and plasma) | Freab ([6]; listed as probenecid)
1 | CC(C)NCC(O)COc1ccc(CCOCC2CC2)cc1 (centres unmarked) [Betaxolol] | 20 | Base | 9.53 | 0.63 | 49.6 mL/min | 49.6 | 49.64 | 0.081 | 0.081 | 0.08 |  |  |  |  |  |  |  |  |  | 
2 | CCCNC(=O)NS(=O)(=O)c1ccc(Cl)cc1 [Chlorpropamide] | 88.1 | Acid |  |  | 0.56 mL/min | 0.6 | 0.56 | 0.907 | 0.915 | 0.91 | 88.1 × 10^− 6 cm/s | 0.56 | 4.69 | 111.60 × 10^− 6 cm/s |  |  |  |  |  | 
3 | NS(=O)(=O)c1cc(C(=O)O)c(NCc2ccco2)cc1Cl [Furosemide] |  |  |  |  |  |  |  |  |  |  |  |  |  |  | up to 20 mL/ min |  |  |  |  | 
4 | NCC1(CC(=O)O)CCCCC1 [Gabapentin] |  | Zwitterion |  |  | 95.1 mL/min | 95.1 | 95.05 | 0.183 | 0.185 | 0.18 |  |  |  |  |  | 0.67 |  |  |  | 
5 | CCCCC1=NC2(CCCC2)C(=O)N1Cc1ccc(-c2ccccc2-c2nnn[nH]2)cc1 [Irbesartan] | 44 | Acid |  | 1.29 | 2.37 mL/min | 2.4 | 2.37 | 0.623 | 0.628 | 0.62 |  | 2.19 | 3.91 |  |  |  |  |  |  | 
6 | Cc1cc(NC(=O)C2=C(O)c3ccccc3S(=O)(=O)N2C)no1 [Isoxicam] | 142 | Acid |  |  | 0.02 mL/min |  | 0.02 | 0.995 | 1.003 | 1.00 |  | 0.7 | 3.84 |  |  |  | 0.022 | ≥ 0.99 | 1 | 
7 | C=CCOc1ccccc1OCC(O)CNC(C)C (centres unmarked) [Oxprenolol] | 30 | Base | 9.6 | 0.23 | 9.35 mL/min | 9.4 | 9.35 | 0.443 | 0.447 | 0.44 | 29.95 × 10^− 6 cm/s |  |  | 12.00 × 10^− 6 cm/s |  |  |  |  |  | 
8 | CN(C)[C@@H]1C(O)=C(C(N)=O)C(=O)[C@@]2(O)C(O)=C3C(=O)c4c(O)cccc4[C@@](C)(O)[C@H]3[C@H](O)[C@@H]12 [Oxytetracycline] | 0.85 | Zwitterion |  |  | 90.8 mL/min | 90.8 | 90.80 | 0.019 | 0.019 | 0.02 | 0.85 × 10^− 6 cm/s |  |  | 0.01 × 10^− 6 cm/s |  |  |  |  |  | 
9 | CCCN(CCC)S(=O)(=O)c1ccc(C(=O)O)cc1 [Probenecid] | 84.5 | Acid |  |  | 0.50 mL/min | 0.5 | 0.50 | 0.955 | 0.963 | 0.96 |  | 0.76 | 3.36 |  |  |  |  |  |  | 0.955
10 | NC(=O)c1ncn([C@@H]2O[C@H](CO)[C@@H](O)[C@H]2O)n1 [Ribavirin] | 1.55 | Neutral |  |  | 109.9 mL/min and 110 mL/min | 109.9 | 109.94 | 0.084 | 0.085 | 0.08 |  |  |  | 0.03 × 10^− 6 cm/s |  |  |  |  |  | 
11 | C[C@@H]1CN(c2c(F)c(N)c3c(=O)c(C(=O)O)cn(C4CC4)c3c2F)C[C@H](C)N1 [Sparfloxacin] | 49.8 | Zwitterion | 8.94 |  | 21.7 mL/min | 21.7 | 21.69 | 0.731 | 0.737 | 0.73 | 49.83 × 10^− 6 cm/s |  | 6.31 | 34.35 × 10^− 6 cm/s |  |  |  |  |  | 
12 | Cc1cccc(C)c1NC(=O)C(C)N (centres unmarked) [Tocainide] | 19 | Base |  | 0.03 | 67.5 mL/min | 67.5 | 67.50 | 0.181 | 0.183 | 0.18 | 19 × 10^− 6 cm/s |  |  | 4.68 × 10^− 6 cm/s |  |  |  |  |  | 
13 | C[C@@H](c1ncncc1F)[C@](O)(Cn1cncn1)c1ccc(F)cc1F [Voriconazole] | 96.5 | Neutral |  | 1.7 | 1.57 mL/min | 1.6 | 1.57 |  |  |  | 96.51 × 10^− 6 cm/s | 1.7 |  | 134.68 × 10^− 6 cm/s |  |  |  |  |  | 
